In publication PMC10388636 (Nature structural & molecular biology, 2022):

Tests used:
[1] = target: SARS-CoV-2 MTase domain (residues 289–527) (Severe acute respiratory syndrome coronavirus 2, UniProt P0DTD1); experiment: ITC binding to isolated MTase domain
[2] = target: SARS-CoV-2 nsp14/nsp10 complex (Severe acute respiratory syndrome coronavirus 2, UniProt P0DTD1); experiment: ITC binding to full-length nsp14/nsp10 complex
[3] = target: TEL-MTase fusion (nsp14 N7-MTase-TELSAM) (Severe acute respiratory syndrome coronavirus 2, UniProt P0DTD1); experiment: ITC binding to TEL-MTase fusion; set-up: species or system SARS-CoV-2

**Q.** What does the source list for `C[S+](CC[C@H](N)C(=O)[O-])C[C@H]1O[C@@H](n2cnc3c(N)ncnc32)[C@H](O)[C@@H]1O` (stereo partly shown) [SAM, S-adenosylmethionine]?
**A.** Kd [1]: 22 to 25 µM; Kd [2]: 5.7 µM

**Q.** Which Kd [3] does the source give for `Nc1ncnc2c1ncn2[C@@H]1O[C@H](CSCC[C@H](N)C(=O)O)[C@@H](O)[C@H]1O` [SAH, S-adenosylhomocysteine] here?
**A.** 5 µM

**Q.** What about the Kd [2] of the same molecule?
**A.** 0.3 µM
